Holding throughout (conditions): membranes from stably transfected CHO cells, 3H-QNB 100-200 pM, 25° C., 90 minutes
For assay [1], the target named is T1, cloned human M5 muscarinic receptor (Homo sapiens, UniProt P08912).
T1 sequence (P08912 1-532): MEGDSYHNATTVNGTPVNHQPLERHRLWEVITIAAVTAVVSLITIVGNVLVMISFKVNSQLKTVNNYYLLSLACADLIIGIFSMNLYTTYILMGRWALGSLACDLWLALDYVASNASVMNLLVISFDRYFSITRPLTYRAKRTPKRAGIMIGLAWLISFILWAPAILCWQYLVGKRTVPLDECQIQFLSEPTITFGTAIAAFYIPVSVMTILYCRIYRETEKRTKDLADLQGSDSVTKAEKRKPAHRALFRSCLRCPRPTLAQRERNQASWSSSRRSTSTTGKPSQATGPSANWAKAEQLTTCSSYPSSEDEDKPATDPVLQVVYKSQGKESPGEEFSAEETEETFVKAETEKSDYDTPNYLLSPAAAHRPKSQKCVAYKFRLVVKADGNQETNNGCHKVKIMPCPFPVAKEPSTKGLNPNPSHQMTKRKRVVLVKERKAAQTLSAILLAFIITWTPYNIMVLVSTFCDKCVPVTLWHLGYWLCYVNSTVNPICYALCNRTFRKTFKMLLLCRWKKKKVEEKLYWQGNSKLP
Put plainly: Muscarinic binding activity, 3H-QNB displacement, M5.

Assay [2] addresses T2, cloned human M4 muscarinic receptor (Homo sapiens, UniProt P08173).
T2 sequence (P08173 1-479): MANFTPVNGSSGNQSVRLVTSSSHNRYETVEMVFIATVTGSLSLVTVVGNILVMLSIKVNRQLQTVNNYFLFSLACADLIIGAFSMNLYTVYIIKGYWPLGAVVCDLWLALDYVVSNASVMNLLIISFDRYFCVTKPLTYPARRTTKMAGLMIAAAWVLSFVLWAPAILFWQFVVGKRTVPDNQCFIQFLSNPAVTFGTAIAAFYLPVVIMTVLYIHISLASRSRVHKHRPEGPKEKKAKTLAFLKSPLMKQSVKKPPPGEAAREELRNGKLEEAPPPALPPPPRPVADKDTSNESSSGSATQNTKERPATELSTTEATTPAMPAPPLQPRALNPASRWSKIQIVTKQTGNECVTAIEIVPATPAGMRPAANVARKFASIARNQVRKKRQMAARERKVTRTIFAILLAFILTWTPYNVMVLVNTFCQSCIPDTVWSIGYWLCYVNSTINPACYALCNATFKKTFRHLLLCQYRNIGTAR
Put plainly: Muscarinic binding activity, 3H-QNB displacement, M4.

Assay [3] deals with T3, cloned human M2 muscarinic receptor (Homo sapiens, UniProt P08172).
T3 sequence (P08172 1-466): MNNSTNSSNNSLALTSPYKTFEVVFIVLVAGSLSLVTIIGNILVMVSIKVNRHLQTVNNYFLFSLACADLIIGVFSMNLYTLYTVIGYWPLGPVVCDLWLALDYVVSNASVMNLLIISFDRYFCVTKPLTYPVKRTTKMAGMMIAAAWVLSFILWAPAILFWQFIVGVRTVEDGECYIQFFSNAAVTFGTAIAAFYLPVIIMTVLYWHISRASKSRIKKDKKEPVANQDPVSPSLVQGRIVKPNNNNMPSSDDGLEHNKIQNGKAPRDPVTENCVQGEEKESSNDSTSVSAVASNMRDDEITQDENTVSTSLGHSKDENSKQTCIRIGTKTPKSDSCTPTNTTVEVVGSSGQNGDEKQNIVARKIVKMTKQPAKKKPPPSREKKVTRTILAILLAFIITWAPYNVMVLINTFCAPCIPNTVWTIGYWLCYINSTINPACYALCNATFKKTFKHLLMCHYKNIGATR
Put plainly: Muscarinic binding activity, 3H-QNB displacement, M2.

For assay [4], the target named is cloned human M3 muscarinic receptor (Homo sapiens, UniProt P20309). Put plainly: Muscarinic binding activity, 3H-QNB displacement, M3.
cloned human M3 muscarinic receptor, sequence (P20309 whole entry): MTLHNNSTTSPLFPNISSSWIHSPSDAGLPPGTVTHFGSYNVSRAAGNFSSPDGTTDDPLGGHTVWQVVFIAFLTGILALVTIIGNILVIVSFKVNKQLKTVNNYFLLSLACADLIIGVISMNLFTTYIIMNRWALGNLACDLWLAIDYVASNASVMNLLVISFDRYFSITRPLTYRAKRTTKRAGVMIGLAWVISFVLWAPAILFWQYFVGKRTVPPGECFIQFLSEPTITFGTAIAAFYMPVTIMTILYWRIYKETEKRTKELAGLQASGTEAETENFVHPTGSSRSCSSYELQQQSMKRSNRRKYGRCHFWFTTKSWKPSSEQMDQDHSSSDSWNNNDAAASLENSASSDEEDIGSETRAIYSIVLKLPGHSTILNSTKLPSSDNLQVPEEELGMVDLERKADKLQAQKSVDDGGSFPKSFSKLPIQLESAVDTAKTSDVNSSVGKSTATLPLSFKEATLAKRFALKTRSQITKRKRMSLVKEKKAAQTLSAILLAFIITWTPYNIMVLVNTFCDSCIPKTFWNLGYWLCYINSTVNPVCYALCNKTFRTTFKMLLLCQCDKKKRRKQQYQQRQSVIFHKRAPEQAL
The target in assay [5] is T4, cloned human M1 muscarinic receptor (Homo sapiens, UniProt P11229).
T4 sequence (P11229 1-460): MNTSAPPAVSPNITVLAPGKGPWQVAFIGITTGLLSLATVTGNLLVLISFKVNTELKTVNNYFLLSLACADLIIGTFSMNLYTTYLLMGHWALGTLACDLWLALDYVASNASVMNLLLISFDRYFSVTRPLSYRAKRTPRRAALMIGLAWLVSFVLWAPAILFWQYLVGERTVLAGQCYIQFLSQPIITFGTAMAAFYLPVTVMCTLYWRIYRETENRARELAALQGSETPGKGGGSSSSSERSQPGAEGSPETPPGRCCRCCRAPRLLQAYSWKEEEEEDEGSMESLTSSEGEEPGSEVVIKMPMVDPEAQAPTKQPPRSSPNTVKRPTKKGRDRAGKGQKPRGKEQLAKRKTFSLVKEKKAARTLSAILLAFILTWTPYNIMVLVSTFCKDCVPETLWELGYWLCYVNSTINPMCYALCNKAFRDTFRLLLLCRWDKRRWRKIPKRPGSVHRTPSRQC
Put plainly: Muscarinic binding activity, 3H-QNB displacement, M1.

A value given as a limit tells only on which side of the number the result lay.

Regarding `Cc1cccc(C(=O)N2CCC(N3CCC4(CC3)C(c3ccc(OC(C)C)cc3)C4(Cl)Cl)CC2)c1Cl` (stereo not shown) [Compound 1], the inhibition constant Ki (in general, a dissociation constant, usually derived from enzyme kinetics or from competition with a known ligand) in assay [1] was 891 nM; in assay [2], above 1000 nM; in assay [3], above 1400 nM; in assay [4], above 1000 nM; in assay [5] it was above 990 nM.

For the molecule `Cc1c(Cl)cccc1C(=O)N1CCC(N2CCC3(CC2)C(c2ccc(OC(C)C)cc2)C3(Cl)Cl)CC1` (stereo not shown) [Compound 2], the Ki in assay [3] is above 1400 nM; in assay [5], 982 nM.

On to `CC(C)Oc1ccc(C2C(Cl)(Cl)C23CCN(C2CCN(C(=O)c4cccc(Cl)c4Cl)CC2)CC3)cc1` (stereo not shown) [Compound 3], for which the Ki in assay [1] was above 1500 nM; in assay [2] it was above 1000 nM; in assay [3] it was above 1440 nM; in assay [4], above 1000 nM; in assay [5], above 996 nM.

Consider `Cc1cccc(C(=O)N2CCC(N3CCC4(CC3)C(c3ccc(OC(C)C)cc3)C4(Cl)Cl)CC2)c1N` (stereo not shown) [Compound 4], for which the Ki in assay [1] is 96 nM; in assay [2] it was above 1000 nM; in assay [3], 77 nM; in assay [4], above 1000 nM; in assay [5], above 990 nM.

With `CC(C)Oc1ccc(C2C(Cl)(Cl)C23CCN(C2CCN(C(=O)c4cccc(Cl)c4N)CC2)CC3)cc1` (stereo not shown) [Compound 5], the Ki is 786 nM in assay [1]; above 1000 nM in assay [2]; 1390 nM in assay [3]; above 1000 nM in assay [4]; above 990 nM in assay [5].

Turning to `CC(C)Oc1ccc(C2C(Cl)(Cl)C23CCN(C2CCN(C(=O)c4cccc(F)c4N)CC2)CC3)cc1` (stereo not shown) [Compound 6], the Ki in assay [1] was 42 nM; in assay [2], above 1000 nM; in assay [3], 1200 nM; in assay [4], above 1000 nM; in assay [5] it was above 990 nM.

For the molecule `Cc1c(Cl)cccc1C(=O)N1CCC(N2CCC3(CC2)CC3c2ccc(OC(C)C)cc2)CC1` (stereo not shown) [Compound 7], the Ki in assay [1] was above 1500 nM; in assay [2], above 1000 nM; in assay [3], above 1380 nM; in assay [4] it was above 1000 nM; in assay [5], above 900 nM.

Take `CC(C)Oc1ccc(C2CC23CCN(C2CCN(C(=O)c4cccc(Cl)c4Cl)CC2)CC3)cc1` (stereo not shown) [Compound 8]: the Ki was above 1500 nM in assay [1]; above 1000 nM in assay [2]; 607 nM in assay [3]; above 1000 nM in assay [4]; 819 nM in assay [5].

In the case of `CC(C)Oc1ccc(C2CC23CCN(C2CCN(C(=O)c4cccc(Cl)c4N)CC2)CC3)cc1` (stereo not shown) [Compound 9], the Ki in assay [1] is above 1500 nM; in assay [2] it was above 1000 nM; in assay [3], 490 nM; in assay [4], above 1000 nM; in assay [5] it was above 900 nM.

Take `CC(C)Oc1ccc(C2(C)CC23CCN(C2CCN(C(=O)c4cccc(Cl)c4Cl)CC2)CC3)cc1` (stereo not shown) [Compound 10]: the Ki in assay [1] is 995 nM; in assay [2], 261 nM; in assay [3], 149 nM; in assay [4], above 1200 nM; in assay [5], 1010 nM.

As to `CC(C)Oc1ccc(C2(C)CC23CCN(C2CCN(C(=O)c4cccc(Cl)c4N)CC2)CC3)cc1` (stereo not shown) [Compound 11], the inhibition constant (Ki) in assay [1] turned out to be 619 nM; in assay [2], 151 nM; in assay [3], 49 nM; in assay [4], 691 nM; in assay [5], 600 nM.

For `Cc1c(Cl)cccc1C(=O)N1CCC(N2CCC3(CC2)CC3(C)c2ccc(OC(C)C)cc2)CC1` (stereo not shown) [Compound 12], the Ki in assay [1] is 1210 nM; in assay [2], 272 nM; in assay [3], 113 nM; in assay [4], above 1200 nM; in assay [5], 744 nM.

Consider `CC(C)Oc1ccc(C2C(Cl)(Cl)C23CCN(C2CCN(C(=O)c4ccc(F)c5ccccc45)CC2)CC3)cc1` (stereo not shown) [Compound 13], for which the results for the Ki in assay [3] and in assay [5] were above 1900 nM and above 1200 nM, respectively.

For `CC(C)Oc1ccc(C2C(Cl)(Cl)C23CCN(C2CCN(C(=O)c4cccc5c(Br)cccc45)CC2)CC3)cc1` (stereo not shown) [Compound 14], the Ki in assay [3] was above 1900 nM; in assay [5], above 1200 nM.

Consider `CCCS(=O)(=O)N1CCC(N2CCC3(CC2)C(c2ccc(OC(C)C)cc2)C3(Cl)Cl)CC1` (stereo not shown) [Compound 15], for which the figures for the Ki in assay [3] and in assay [5] were 481 nM and above 1200 nM, respectively.

With `CC(C)Oc1ccc(C2C(Cl)(Cl)C23CCN(C2CCN(S(=O)(=O)c4cccc5ccccc45)CC2)CC3)cc1` (stereo not shown) [Compound 16], the Ki in assay [3] is 1840 nM; in assay [5], above 1200 nM.

For the molecule `Cc1cccc(C)c1C(=O)N1CCC(N2CCC3(CC2)C(c2ccc(OC(C)C)cc2)C3(Cl)Cl)CC1` (stereo not shown) [Compound 17], the Ki in assay [3] is above 1900 nM; in assay [5] it was above 1200 nM.

Source of the values: patent publication US6890936B2, “Muscarinic antagonists” (Schering Corporation, priority 2002, dated 2005).
